In brackets after ≈: the same amount, converted by molar mass.
Legend:
Assay in all cases: ≥ marks a high value that may be exact or a test limit, other limits are often not marked, values filed in µg/mL are converted to µM
Staphylococcus aureus 1 = test system: Staphylococcus aureus 1
[1] = test system: Micrococcus luteus CCM 144
Pseudomonas aeruginosa = test system: Pseudomonas aeruginosa
[2] = test system: Pseudomonas aeruginosa ATCC 27853
[3] = test system: Staphylococcus aureus ATCC 43300
Bacillus subtilis 168 = test system: Bacillus subtilis 168
[4] = test system: Candida albicans F7-39/IDE99
Escherichia coli B = test system: Escherichia coli B
Staphylococcus aureus = test system: Staphylococcus aureus
[5] = test system: Staphylococcus epidermidis
[6] = test system: Fusarium graminearum PH-1
[7] = test system: Pseudomonas aeruginosa 213
Candida albicans C627 = test system: Candida albicans C627
[8] = test system: Escherichia coli ESBL 63103
[9] = test system: Pseudomonas aeruginosa H103
[10] = test system: Enterococcus faecium mic80
[11] = test system: Staphylococcus aureus C623
[12] = test system: Pseudomonas aeruginosa LES400
[13] = test system: Staphylococcus aureus ATCC 25923
[14] = test system: Klebsiella pneumoniae ATCC 700603
[15] = test system: Escherichia coli ATCC 25322
[16] = test system: Staphylococcus epidermidis ATCC 12228
[17] = test system: Escherichia coli BW25113 ΔsbmA
[18] = test system: Salmonella enterica subsp. enterica serovar Typhimurium ATCC 14028
Escherichia coli BW25113 = test system: Escherichia coli BW25113
[19] = test system: Acinetobacter baumannii ATCC 19606
[20] = test system: Escherichia coli ATCC 25922
Escherichia coli = test system: Escherichia coli
Bacillus subtilis = test system: Bacillus subtilis
Micrococcus luteus = test system: Micrococcus luteus
Acinetobacter baumannii = test system: Acinetobacter baumannii
[21] = test system: Escherichia coli DH5alpha
[22] = test system: Corynebacterium glutamicum ATCC 13032
[23] = test system: Stenotrophomonas maltophilia
Proteus vulgaris = test system: Proteus vulgaris
Salmonella typhimurium = test system: Salmonella typhimurium
Streptococcus pyogenes = test system: Streptococcus pyogenes

CC[C@H](C)[C@H](NC(=O)CN)C(=O)N[C@@H](CC(C)C)C(=O)N[C@@H](CO)C(=O)N[C@@H](CO)C(=O)N[C@@H](CC(C)C)C(=O)N[C@@H](Cc1c[nH]c2ccccc12)C(=O)N[C@@H](CCCCN)C(=O)N[C@@H](CCCCN)C(=O)N[C@@H](CC(C)C)C(=O)N[C@@H](CCCCN)C(=O)N[C@@H](CCCCN)C(=O)N[C@@H](Cc1c[nH]c2ccccc12)C(=O)N[C@H](C(=O)N[C@@H](C)C(=O)N[C@@H](CCCCN)C(N)=O)[C@@H](C)CC [GILSSLWKKLKKWIAK]
MIC (Staphylococcus aureus 1): 1.8 µM (≈ 3.42 µg/mL) | MIC [1]: 3 µM (≈ 5.7 µg/mL) | MIC (Pseudomonas aeruginosa): 24 µM (≈ 45.6 µg/mL) | MIC [2]: 13 µM (≈ 24.7 µg/mL) | MIC [3]: 2.5 µM (≈ 4.75 µg/mL) | MIC (Bacillus subtilis 168): 7 µM (≈ 13.3 µg/mL) | MIC [4]: 13 µM (≈ 24.7 µg/mL) | MIC (Escherichia coli B): 2.5 µM (≈ 4.75 µg/mL) | MIC (Staphylococcus aureus): 2 µM (≈ 3.8 µg/mL) | MIC [5]: 1.6 µM (≈ 3.04 µg/mL)

CC[C@H](C)[C@H](NC(=O)[C@H](CCCCN)NC(=O)[C@H](CCCCN)NC(=O)[C@H](CC(C)C)NC(=O)[C@H](CCCCN)NC(=O)[C@H](CCCCN)NC(=O)[C@H](Cc1c[nH]c2ccccc12)NC(=O)[C@H](CC(C)C)NC(=O)[C@H](CO)NC(=O)[C@H](CO)NC(=O)[C@H](CC(C)C)NC(=O)[C@H](CCCCN)NC(=O)CN)C(=O)N[C@H](C(=O)N[C@@H](C)C(=O)N[C@@H](CCCCN)C(N)=O)[C@@H](C)CC [GKLSSLWKKLKKIIAK]
MIC (Staphylococcus aureus 1): 11 µM (≈ 20.2 µg/mL) | MIC [1]: 3 µM (≈ 5.52 µg/mL) | MIC (Pseudomonas aeruginosa): 19 µM (≈ 35 µg/mL) | MIC [2]: 6.8 µM (≈ 12.5 µg/mL) | MIC [3]: 26 µM (≈ 47.8 µg/mL) | MIC (Bacillus subtilis 168): 7 µM (≈ 12.9 µg/mL) | MIC [4]: ≥ 34 µM | MIC (Escherichia coli B): 20 µM (≈ 36.8 µg/mL) | MIC (Staphylococcus aureus): 27 µM (≈ 49.7 µg/mL) | MIC [5]: 2.5 µM (≈ 4.6 µg/mL)

NCC(=O)N1CCC[C@H]1C(=O)N[C@H]1CSSC[C@@H](C(=O)O)NC(=O)CNC(=O)[C@H](CO)NC(=O)[C@H](Cc2ccccc2)NC1=O [GPCFSGC]
MIC [6]: ≥ 48 µM

CC[C@H](C)[C@H](N)C(=O)N[C@@H](CCCCN)C(=O)N[C@@H](Cc1c[nH]c2ccccc12)C(=O)N[C@@H](CCCCN)C(=O)N[C@@H](CCCN=C(N)N)C(=O)N[C@@H](Cc1c[nH]c2ccccc12)C(=O)N[C@@H](Cc1c[nH]c2ccccc12)C(=O)N[C@@H](Cc1c[nH]c2ccccc12)C(=O)N[C@@H](CCCN=C(N)N)C(=O)O [IKWKRWWWR]
MIC [7]: ≥ 88.6 µM | MIC (Candida albicans C627): 5.54 µM (≈ 8 µg/mL) | MIC [8]: 22.1 µM (≈ 32 µg/mL) | MIC [9]: ≥ 88.6 µM | MIC [10]: 22.1 µM (≈ 32 µg/mL) | MIC [11]: 22.1 µM (≈ 32 µg/mL) | MIC [12]: ≥ 88.6 µM | MIC [13]: 22.1 µM (≈ 32 µg/mL)

CC(C)C[C@H](NC(=O)[C@H](C)NC(=O)[C@H](CO)NC(=O)[C@H](CCCCN)NC(=O)[C@H](CC(C)C)NC(=O)[C@H](CC(C)C)NC(=O)[C@@H](N)CC(N)=O)C(=O)N[C@@H](CCCCN)C(=O)N[C@H](C(=O)N[C@H](C(=O)N[C@@H](CC(N)=O)C(=O)N[C@@H](CCCCN)C(=O)N[C@@H](CC(C)C)C(=O)N[C@@H](CC(C)C)C(=O)N[C@@H](C)C(=O)N[C@@H](C)C(=O)N[C@@H](CO)C(N)=O)C(C)C)[C@@H](C)O [NLLKSALKTVNKLLAAS]
MIC [2]: 64 µM (≈ 114 µg/mL) | MIC [14]: 64 µM (≈ 114 µg/mL) | MIC [15]: ≥ 32 µM | MIC [16]: 64 µM (≈ 114 µg/mL) | MIC [13]: 128 µM (≈ 228 µg/mL)

CC(C)C[C@H](NC(=O)CNC(=O)[C@H](CC(N)=O)NC(=O)[C@@H](NC(=O)[C@@H](NC(=O)CNC(=O)[C@H](CC(C)C)NC(=O)[C@H](C)NC(=O)[C@H](CC(=O)O)NC(=O)[C@H](CC(N)=O)NC(=O)[C@H](CC(C)C)NC(=O)[C@H](CC(C)C)NC(=O)[C@@H](N)CC(N)=O)[C@@H](C)O)C(C)C)C(=O)N[C@@H](CC(C)C)C(=O)NCC(=O)N[C@@H](CCCN=C(N)N)C(=O)N[C@@H](CO)C(=O)O [NLLNDALGTVNGLLGRS]
MIC [15]: ≥ 64 µM | MIC [13]: 32 µM (≈ 55.3 µg/mL)

CC[C@H](C)[C@H](NC(=O)[C@@H]1CCCN1C(=O)[C@@H]1CCCN1C(=O)[C@H](CCCN=C(N)N)NC(=O)[C@H](Cc1ccccc1)NC(=O)[C@@H](N)CCCN=C(N)N)C(=O)N[C@@H](CCCN=C(N)N)C(=O)N[C@@H](CCCN=C(N)N)C(=O)N1CCC[C@H]1C(=O)N1CCC[C@H]1C(=O)N[C@H](C(=O)N[C@@H](CCCN=C(N)N)C(=O)N1CCC[C@H]1C(=O)N1CCC[C@H]1C(=O)N[C@@H](Cc1ccccc1)C(=O)N[C@@H](Cc1ccc(O)cc1)C(=O)N1CCC[C@H]1C(=O)N1CCC[C@H]1C(=O)N[C@@H](Cc1ccccc1)C(=O)N[C@@H](CCCN=C(N)N)C(=O)N1CCC[C@H]1C(=O)O)[C@@H](C)CC [RFRPPIRRPPIRPPFYPPFRP]
MIC [2]: > 64 µM | MIC [17]: 16 µM (≈ 42.6 µg/mL) | MIC [18]: 8 µM (≈ 21.3 µg/mL) | MIC (Escherichia coli BW25113): 2 µM (≈ 5.32 µg/mL) | MIC [19]: 16 µM (≈ 42.6 µg/mL) | MIC [14]: 32 µM (≈ 85.1 µg/mL) | MIC [20]: 4 µM (≈ 10.6 µg/mL) | MIC [13]: > 64 µM

C[C@H](NC(=O)[C@H](Cc1ccccc1)NC(=O)CNC(=O)[C@@H](N)CCCN=C(N)N)C(=O)N[C@@H](CCCN=C(N)N)C(=O)N[C@@H](CCCN=C(N)N)C(=O)O [RGFARR]
MIC [6]: ≥ 96 µM

CC(=O)N[C@@H](CCCN=C(N)N)C(=O)N[C@@H](Cc1c[nH]c2ccccc12)C(=O)N[C@H](C(=O)N[C@@H](Cc1c[nH]c2ccccc12)C(=O)N[C@@H](CCCN=C(N)N)C(=O)NCC(=O)N[C@@H](CO)C(=O)NCC(=O)N[C@@H](CCCN=C(N)N)C(=O)N[C@@H](Cc1c[nH]c2ccccc12)C(=O)N[C@H](C(=O)N[C@@H](Cc1c[nH]c2ccccc12)C(=O)N[C@@H](CCCN=C(N)N)C(N)=O)[C@@H](C)O)[C@@H](C)O [RWTWRGSGRWTWR]
MIC (Escherichia coli): 8.93 µM (≈ 16.4 µg/mL) | MIC (Pseudomonas aeruginosa): 69.8 µM (≈ 128 µg/mL) | MIC (Bacillus subtilis): 8.93 µM (≈ 16.4 µg/mL) | MIC (Micrococcus luteus): 8.93 µM (≈ 16.4 µg/mL) | MIC (Acinetobacter baumannii): 17.9 µM (≈ 32.7 µg/mL) | MIC [21]: 25 µM (≈ 45.8 µg/mL) | MIC [22]: 0.794 µM (≈ 1.45 µg/mL) | MIC (Staphylococcus aureus): 4.47 µM (≈ 8.18 µg/mL) | MIC [23]: ≥ 279 µM

CC[C@H](C)[C@H](NC(=O)[C@@H](N)Cc1ccc(O)cc1)C(=O)N1CCC[C@H]1C(=O)N[C@@H](CCC(N)=O)C(=O)N1CCC[C@H]1C(=O)N[C@@H](CCCN=C(N)N)C(=O)N1CCC[C@H]1C(=O)N1CCC[C@H]1C(=O)N[C@@H](Cc1cnc[nH]1)C(=O)N1CCC[C@H]1C(=O)N[C@@H](CCCN=C(N)N)C(=O)N[C@@H](CC(C)C)C(=O)O [YIPQPRPPHPRL]
MIC (Proteus vulgaris): ≥ 64 µM | MIC (Escherichia coli): 64 µM (≈ 94.1 µg/mL) | MIC (Pseudomonas aeruginosa): 64 µM (≈ 94.1 µg/mL) | MIC (Salmonella typhimurium): 0.5 µM (≈ 0.735 µg/mL) | MIC (Bacillus subtilis): ≥ 64 µM | MIC (Streptococcus pyogenes): ≥ 64 µM | MIC [5]: ≥ 64 µM

Source: DBAASP
